Test results reported in patent US20140048061A1, “SYSTEM AND METHOD FOR ADMINISTERING ANESTHETICS WHILE PERFORMING CPR” (priority 2012, published 2014).
Marks after values point to notes of the source that are not given here.

Assays:
[1] = tested on: animals after cardiac arrest and ROSC; experiment: Second cardiac arrest/CPR experiment, sevoflurane-treated (SPoC) vs control: left ventricle ejection fraction post ROSC; assay type: in vivo, pigs; settings: *P<0.05 vs controls
Method: (§1) Another experiment was conducted with similar results. In that experiment, the hearts were subsequently removed from 5 animals from each group 15 minutes post-ROSC for mitochondrial function testing. Compared with the control group, all mitochondrial function tests were improved in the sevoflurane treated animals.
(§2) Table 1 illustrates the mitochondrial function for complex I substrates pyruvate (P, 10 mM) and malate (M, 10 mM) and complex II substrate succinate (Suc, 10 mM) in control hearts vs. sevoflurane-treated hearts (SPoC). LVEF refers to the left ventricle ejection fraction percentage at 12 min post return of spontaneous circulation (ROSC). RCI refers to the respiratory control index (state 3/state 4 respiration). ATP refers to adenosine triphosphate synthesis and Ca Ret refers to calcium retention capacity until mitochondrial transition pore opening. The asterisk (*) refers to P of less than 0.05.

[2] = tested on: heart mitochondria (complex I and complex II substrates); experiment: Mitochondrial function testing of hearts removed 15 minutes post-ROSC; assay type: in vivo, pigs
Method: as §1, §2

[3] = at 37° C.; cited from earlier work
[4] = tested on: pigs experiencing induced cardiac arrest; experiment: Pigs in induced VF cardiac arrest, untreated for 20 minutes, given inhaled isoflurane at the start of conventional manual CPR; assay type: in vivo
Method: As an example, Applicants conducted experiments on pigs experiencing induced cardiac arrest. Cardiac arrest was induced by generating ventricular fibrillation (VF) and pigs were left in untreated cardiac arrest for 20 minutes. At the initiation of conventional manual CPR, inhaled isoflurane at 4% was introduced via an anesthesia machine for a total of 3 minutes. The anesthesia was then turned off. After a total of 4 minutes of CPR the animals were then shocked back into a stable perfusing heart rhythm and the dose of isoflurane anesthesia was restarted at 1% to provide for anesthesia during the recovery period of the animals. […] Cardiac function based upon an assessment of the left ventricular (LV) ejection fraction (EF) after 1 and 4 hours was normal, as determined by echocardiography, and post resuscitation inotropic support was unnecessary due to the absence of hemodynamic instability. Two of the 4 animals had undetectable levels of markers of cardiac injury (creatinine phosphokinase MB and cardiac troponin [cTnI]), while 2 of the 4 animals had mild elevations of markers of cardiac injury (creatinine phosphokinase MB and cTnI) at 4 hours post ROSC (6.8±9 and 5.8±11 in ng/mL, respectively). […] Although the duration of untreated VF in the control animals was 5 minutes shorter, post ROSC left ventricular function was severely compromised (EF: 33±9%) and there was significant elevation of CKMB and cTnI at 4 hours post ROSC (26.5±13.7 and 31.2±14.3, p<0.05) compared to isoflurane treated animals resuscitated after 20 minutes of untreated VF. In the absence of anesthesia during CPR as described above, Applicants were been unable to resuscitate pigs after 20 minutes of untreated arrest with conventional CPR. These findings represent an important advance in the field of CPR.

[5] = pyruvate 10 mM and malate 10 mM
[6] = 4 hours post ROSC, 2 of 4 animals undetectable, 2 of 4 mild elevations

With `FCOC(C(F)(F)F)C(F)(F)F` [sevoflurane] the “LVEF (%) 12 min Post ROSC” value [1] was 53 ± 16* %, the “all mitochondrial function tests compared with the control group” value ([2]; 5 animals per group, hearts removed 15 min post-ROSC) was “improved” and the “RCI P/M (respiratory control index, state 3/state 4 respiration)” value ([2]; complex I substrates pyruvate 10 mM and malate 10 mM, hearts removed 15 min post-ROSC) was 11.4 ± 0.5*. The “RCI Suc (respiratory control index)” value ([2]; complex II substrate succinate 10 mM, hearts removed 15 min post-ROSC) was 4.5 ± 0.2*, the “ATP P/M (adenosine triphosphate synthesis)” value [2, 5] was 148.5 ± 24.8* nm/min/mg and the “Ca Ret P/M (calcium retention capacity until mitochondrial transition pore opening)” value [2, 5] was 318.8 ± 45.0* nm/min/mg. For the same compound, the “ATP Suc (adenosine triphosphate synthesis)” value ([2]; succinate 10 mM) was 132.3 ± 18.4* nm/min/mg, the “Ca Ret Suc (calcium retention capacity until mitochondrial transition pore opening)” value ([2]; succinate 10 mM) was 474.0 ± 58.8* nm/min/mg and the “blood gas partition coefficient” value [3] was 0.65.
In the case of `FC(F)OC(Cl)C(F)(F)F` (centres unmarked) [isoflurane], the “cardiac troponin cTnI (marker of cardiac injury)” value [4, 6] is reported as 5.8 ± 11 ng/mL, the “creatinine phosphokinase MB (marker of cardiac injury)” value [4, 6] is reported as 6.8 ± 9 ng/mL and the “post resuscitation inotropic support” value ([4]; absence of hemodynamic instability) is reported as “unnecessary”. The “cardiac function based on left ventricular (LV) ejection fraction (EF)” value ([4]; after 1 and 4 hours, by echocardiography) was “normal” and the “shocks needed to achieve return of spontaneous circulation (ROSC)” value ([4]; all 4 animals, 20 min untreated VF, isoflurane 4% for 3 min, after 4 min CPR and one dose of 0.5 mg epinephrine) was 1-2 shocks.
